The source of these data is ChEMBL document CHEMBL3352457 (Bioorg Med Chem Lett, 2015).

For experiment [1], the target named is T1, Neurotensin receptor type 2 (Rattus norvegicus) (UniProt Q63384).
T1 sequence (whole entry): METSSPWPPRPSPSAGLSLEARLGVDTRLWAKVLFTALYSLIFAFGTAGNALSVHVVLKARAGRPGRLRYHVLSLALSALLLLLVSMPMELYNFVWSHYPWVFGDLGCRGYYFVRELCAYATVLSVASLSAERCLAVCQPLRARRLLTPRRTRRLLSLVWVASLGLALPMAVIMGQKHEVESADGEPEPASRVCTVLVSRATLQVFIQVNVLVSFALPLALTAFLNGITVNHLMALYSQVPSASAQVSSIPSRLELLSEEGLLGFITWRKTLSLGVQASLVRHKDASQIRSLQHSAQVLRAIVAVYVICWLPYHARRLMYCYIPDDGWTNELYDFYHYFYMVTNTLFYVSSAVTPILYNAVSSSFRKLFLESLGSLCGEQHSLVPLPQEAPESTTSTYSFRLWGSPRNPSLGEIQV
In words: Antagonist activity at rat neurotensin receptor type 2 expressed in CHOK1 cells assessed as inhibition of SR142948a-induced calcium release at 10 uM by FLIPR assay. In kind it is functional, cell-based. The note with it: CHO-K1.

For experiment [2], the target named is Neurotensin receptor type 1 (Rattus norvegicus) (UniProt P20789). Kind of experiment: Antagonist activity at rat neurotensin receptor type 1 expressed in CHOK1 cells assessed as inhibition of calcium release at 10 uM by FLIPR assay. The note with it: CHO-K1. It is filed as functional, cell-based.
Neurotensin receptor type 1 (Rattus norvegicus), sequence (P20789 whole entry): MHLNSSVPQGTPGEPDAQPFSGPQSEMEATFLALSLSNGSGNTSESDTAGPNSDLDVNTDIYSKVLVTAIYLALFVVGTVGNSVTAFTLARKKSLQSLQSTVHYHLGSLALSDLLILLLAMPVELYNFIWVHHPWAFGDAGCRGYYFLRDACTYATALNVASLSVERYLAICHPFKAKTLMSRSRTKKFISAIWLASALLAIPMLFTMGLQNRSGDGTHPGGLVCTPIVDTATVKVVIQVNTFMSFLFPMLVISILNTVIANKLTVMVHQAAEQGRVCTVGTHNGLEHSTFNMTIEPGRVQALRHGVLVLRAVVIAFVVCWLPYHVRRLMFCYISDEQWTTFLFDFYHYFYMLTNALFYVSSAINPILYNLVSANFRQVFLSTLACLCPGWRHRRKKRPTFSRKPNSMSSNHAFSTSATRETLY
For experiment [3] the target is unchanged. In words: Agonist activity at rat neurotensin receptor type 1 expressed in CHOK1 cells assessed as increase in calcium release at 10 uM by FLIPR assay. It is filed as functional, cell-based. The note with it: CHO-K1.
The target of experiment [4] is T1, Neurotensin receptor type 2 (Rattus norvegicus). In words: Agonist activity at rat neurotensin receptor type 2 expressed in CHOK1 cells assessed as increase in calcium release at 10 uM by FLIPR assay. In kind it is functional, cell-based. The note with it: CHO-K1.
The target in experiment [5] is T2, Neurotensin receptor type 2 (Rattus norvegicus, UniProt Q63384).
T2 sequence (Q63384 whole entry): T1 sequence (whole entry)
In words: Displacement of [[…]]NT from rat neurotensin receptor type 2 expressed in CHOK1 cells by radioligand binding assay. In kind it is cell-based, CHO-K1.

The target of experiment [6] is Neurotensin receptor type 1 (Rattus norvegicus) (UniProt P20789). Kind of experiment: Agonist activity at rat neurotensin receptor type 1 expressed in CHOK1 cells assessed as increase in calcium release by FLIPR assay. It is filed as functional, cell-based. Particulars: CHO-K1.
The target in experiment [7] is T1, Neurotensin receptor type 2 (Rattus norvegicus). Kind of experiment: Agonist activity at rat neurotensin receptor type 2 expressed in CHOK1 cells assessed as increase in calcium release by FLIPR assay relative to SR142948a. It is filed as functional, cell-based. The note with it: CHO-K1.
Experiment [8] concerns the target T2, Neurotensin receptor type 2. Kind of experiment: Agonist activity at rat neurotensin receptor type 2 expressed in CHOK1 cells assessed as increase in calcium release by FLIPR assay. It is filed as functional, cell-based, CHO-K1.
Experiment [9] addresses Neurotensin receptor type 1 (Rattus norvegicus, UniProt P20789). In words: Displacement of [[…]]NT from rat neurotensin receptor type 1 expressed in CHOK1 cells by radioligand binding assay. In kind it is cell-based, CHO-K1.
Experiment [10] addresses T2, Neurotensin receptor type 2. In words: Antagonist activity at rat neurotensin receptor type 2 expressed in CHOK1 cells assessed as inhibition of SR142948a-induced calcium release by FLIPR assay. It is filed as functional, cell-based, CHO-K1.

pEC50, pIC50, pKi: −log10 of the molar value. Calls of active or inactive are those of the source. The calls are words filed in the database; no cut-off is given here.

Neurotensin receptor type 1, sequence (P20789 whole entry): as above

The inhibition is the share of the control response that was lost under treatment. Turning to `O=C(O)c1cccc(NC(=S)NC(=O)C(c2ccccc2)c2ccccc2)c1`, the inhibition entry in [1] and in experiment [2] was “inactive” each time. For the same compound, the result in experiment [3] and in experiment [4] was inactive.

`O=C(O)c1ccc(NC(=S)NC(=O)C(c2ccccc2)c2ccccc2)cc1Cl`: the inhibition result in experiment [1] and in [2] was “inactive” each time. The result in experiment [3] and in experiment [4] was inactive.

For `CC(C)[C@H](NC(=O)/C(=C/c1ccccc1)NC(=O)c1ccccc1)C(=O)O`, the inhibition entry in [1] and in [2] was “inactive” in each case. The outcome in experiment [3] and in experiment [4] was inactive.

In general, pKi refers to the Ki on a negative log10 scale, so that one unit is a factor of ten. As usually defined, the Emax is the size of the effect at its maximum, as opposed to the concentration needed. The pEC50 is the negative decadic logarithm of the EC50, by convention in mol/L. `COc1cccc(OC)c1-c1nc(C(=O)NC2(C(=O)O)CCCCC2)nc2ccc(Cl)cc12` showed a negative-log Ki (pKi) in experiment [5] of 6.02. The outcome in experiment [6] was inactive. Further, the Emax in experiment [7] is 26%. The pEC50 in experiment [8] is 6.84.

As to `COc1ccc(C(=O)N/C(=C\c2ccccc2)C(=O)N[C@H](C(=O)O)C(C)C)cc1`, the inhibition entry in [1] and in experiment [2] was “inactive” in each case. The result in [3] and in experiment [4] was inactive.

As for `COc1cccc(OC)c1-c1cc(C(=O)NC2(C(=O)O)C3CC4CC(C3)CC2C4)nn1-c1ccc(C(=O)N(C)CCCN(C)C)cc1C(C)C` (centres undefined), the pKi in experiment [9] was 8.70; in experiment [5] it was 8.15. Moreover, the pEC50 in [8] is 7.74.

In the case of `COc1ccc(C(=O)N/C(=C\c2cccc([N+](=O)[O-])c2)C(=O)N[C@@H](CC(C)C)C(=O)O)cc1`, the inhibition entry in experiment [1] and in [2] was “inactive” throughout. For the same compound, the result in experiment [3] and in experiment [4] was inactive.

With `COc1ccc(C(=O)O)cc1NC(=S)NC(=O)C(c1ccccc1)c1ccccc1`, the inhibition entry in [1] and in [2] was “inactive” throughout. The outcome in experiment [3] and in experiment [4] was inactive.

By pIC50 is commonly meant the negative decadic logarithm of the IC50, by convention in mol/L. Regarding `COc1cccc(OC)c1-c1nc(C(=O)N[C@H](C(=O)O)C2CCCCC2)nc2ccc(Cl)cc12`, the negative logarithm of the IC50 (pIC50) in [10] was 5.97. Besides, in [5], the pKi is 6.32. The result in experiment [6] was inactive.

Take `O=C1NC(=O)N(c2ccc(C(=O)O)cc2)C(=O)/C1=C/c1c(OCc2ccccc2)ccc2ccccc12`: the inhibition result in experiment [1] and in experiment [2] was “inactive” in each case. Moreover, the result in [3] and in experiment [4] was inactive.

Turning to `Cc1ccc(C(=O)O)cc1NC(=S)NC(=O)C(c1ccccc1)c1ccccc1`, the inhibition result in experiment [1] and in experiment [2] was “inactive” in each case. Besides, the result in [3] and in [4] was inactive.

Take `COc1ccccc1C(=O)N/C(=C\c1ccc2c(c1)OCO2)C(=O)N[C@H](C(=O)O)C(C)C` (stereo in doubt): the inhibition entry in experiment [1] and in experiment [2] was “inactive” throughout. In addition, the result in experiment [3] and in experiment [4] was inactive.

For `O=C(O)c1cc(Nc2nc(-c3ccccc3)c3cc(Cl)ccc3n2)ccc1O`, the inhibition in experiment [1] was 20%. Further, the inhibition entry in experiment [2] is “inactive”. Moreover, the outcome in experiment [3] and in experiment [4] was inactive.

Consider `Cc1c(NC(=S)NC(=O)C(c2ccccc2)c2ccccc2)cccc1C(=O)O`, for which the inhibition result in experiment [1] and in experiment [2] was “inactive” throughout. Further, the result in [3] and in [4] was inactive.
